{"source": "paper PMC6281186", "about": "“Bioinformatics: A rational combine approach used for the identification and in-vitro activity evaluation of potent β-Glucuronidase inhibitors” (PLoS ONE, 2018)", "molecular_target": "T1, β-glucuronidase enzyme (Escherichia coli, UniProt P05804)", "T1 construct": "purchased Sigma Aldrich G7396-25KU", "T1 sequence (P05804 whole entry)": "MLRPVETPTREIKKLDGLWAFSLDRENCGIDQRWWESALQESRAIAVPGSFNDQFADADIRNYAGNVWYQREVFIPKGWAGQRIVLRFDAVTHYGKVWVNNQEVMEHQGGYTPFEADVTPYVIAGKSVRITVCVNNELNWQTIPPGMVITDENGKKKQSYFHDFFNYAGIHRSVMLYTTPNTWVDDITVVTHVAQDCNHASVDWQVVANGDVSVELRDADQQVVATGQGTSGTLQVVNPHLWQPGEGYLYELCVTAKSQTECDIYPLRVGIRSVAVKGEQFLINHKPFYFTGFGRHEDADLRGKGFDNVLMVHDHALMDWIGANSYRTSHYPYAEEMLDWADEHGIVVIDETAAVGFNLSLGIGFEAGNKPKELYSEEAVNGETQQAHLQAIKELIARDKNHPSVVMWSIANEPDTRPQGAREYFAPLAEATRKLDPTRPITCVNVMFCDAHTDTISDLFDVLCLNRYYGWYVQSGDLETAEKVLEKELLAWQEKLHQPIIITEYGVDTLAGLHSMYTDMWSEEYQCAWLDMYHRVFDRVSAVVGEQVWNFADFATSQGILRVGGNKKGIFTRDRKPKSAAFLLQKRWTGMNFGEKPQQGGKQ", "assay": "β-Glucuronidase inhibition assay (spectrophotometric, p-nitrophenyl-β-D-glucuronide)", "type": "biochemical", "procedure": "β-Glucuronidase inhibitory activity was determined with the help of spectrophotometric method by measuring the absorbance at 405 nm of p-nitrophenol formed from the substrate (p-nitrophenyl-β-D-glucuronide, N1627-250 mg, Sigma Aldrich). The total reaction volume was 250 μL. The compound dissolved in DMSO (100%), which becomes 2% in the ultimate assay (250 μL) and the similar conditions were used for standard (D-saccharic acid 1, 4-lactone, Sigma Aldrich). The reaction mixture contained 185 μL of 0.1 M acetate buffer, 5 μL of test compound solution, 10 μL of (1U) enzyme solution (G7396-25KU, Sigma Aldrich) was incubated at 37°C for 30 min. The plates were read on a multiplate reader (SpectraMax plus 384) at 405 nm after the addition of 50 μL of 0.4 mM p-nitrophenyl-β-D-glucuronide. All assays were performed in triplicate. IC50values were calculated by using EZ-Fit software (Perrella Scientific Inc., Amherst, MA, U.S.A.). These values are the mean of three independent readings^ [23]"}
{"smiles": "O=C1OC(C(O)C(=O)O)C(O)C1O", "note": "[D-saccharic acid 1,4-lactone]", "values": [{"measurement": "% Inhibition", "setting": "Conc. 200 μM", "value": 89.4, "unit": "%"}, {"measurement": "IC50", "setting": "β-glucuronidase inhibition, mean of three readings, read-out: IC50 μM±SEM", "value": "45.8 ± 2.16", "unit": "µM"}]}
